Results published in patent US20230399312A1, “SUBSTITUTED PYRIMIDINES AND METHODS OF USE” (THERAVANCE BIOPHARMA R&D IP, LLC, priority 2020, published 2023).
pKi: −log10 of the molar value.

Assays:
[1] = system: TGF-β-stimulated SMAD3 phosphorylation in BEAS-2B cells; assay: Cellular ALK5 potency assay, inhibition of TGF-β stimulated pSMAD3 formation in BEAS-2B cells; type: cell-based; settings: Homo sapiens, pSMAD3, TGF-β 10 ng/mL, read-out: BEAS2B pIC50 (converted)
Method: The potency of compounds of the present disclosure for inhibition of TGF-β-stimulated SMAD3 phosphorylation was measured in BEAS-2B cells, a human lung epithelial cell line. TGF-β signals through activin receptor-like kinase 5 (ALK5) immediately prior to SMAD3 phosphorylation.
BEAS-2B cells were grown using 50% DMEM (Life Technologies) and 50% F-12 (Life Technologies) media, supplemented with 10% Fetal Bovine Serum (ATCC), 25 mM HEPES (Life Technologies), and 1×Pen-Strep (Life Technologies). Cells were cultured in a humidified incubator set at 37° C., 5% CO2, and trypsonized using 0.25% Trypsin with 0.5% polyvinylpyrrolidone (PVP).
For the assay, BEAS-2B cells were seeded at 7,500 cells/well (25 μL/well) in a 384-well plate and cultured overnight. Before dosing, growth media was aspirated and the wells were rinsed with HBSS Buffer (HBSS with Calcium and Magnesium, Life Technologies) supplemented with 25 mM HEPES (Life Technologies) and 1% Bovine Serum Albumin (Roche). Compounds were serially diluted in DMSO, then further diluted with supplemented HBSS Buffer (50 μL/well) to create a compound plate 3× of the final assay concentration, at 0.3% DMSO. The diluted compounds were then added to the cells (8 μL/well) and incubated at 37° C., 5% CO2 for 1 hour. After the compound incubation, TGF-β (R&D Systems) reconstituted in supplemented HBSS Buffer was added to the cells ([…], final concentration 10 ng/mL) and incubated for a further 30 minutes, after which the cells were immediately lysed with AlphaLISA lysis buffer (PerkinElmer). AlphaLISA Acceptor and Detector beads (PerkinElmer) were added 2 hours apart, then incubated overnight to be read the next day. The potency of the compound was determined through analysis of dose-dependent quantified changes in pSMAD3 signal from baseline (non-compound treated TGF-β stimulated cells). Data are expressed as pIC50 (negative decadic logarithm IC50) values.

[2] = biological target: T1, recombinant human ALK5 (TGF-βR1) protein (Homo sapiens, UniProt P36897); assay: Biochemical ALK5 (TGF-βR1) assay to measure pKi (LANCE Ultra ULight kinase assay); settings: apparent pKi, converted from pIC50 by Cheng-Prusoff
T1 construct: purchased Life Technologies PR9075A
T1 sequence (P36897 34-503): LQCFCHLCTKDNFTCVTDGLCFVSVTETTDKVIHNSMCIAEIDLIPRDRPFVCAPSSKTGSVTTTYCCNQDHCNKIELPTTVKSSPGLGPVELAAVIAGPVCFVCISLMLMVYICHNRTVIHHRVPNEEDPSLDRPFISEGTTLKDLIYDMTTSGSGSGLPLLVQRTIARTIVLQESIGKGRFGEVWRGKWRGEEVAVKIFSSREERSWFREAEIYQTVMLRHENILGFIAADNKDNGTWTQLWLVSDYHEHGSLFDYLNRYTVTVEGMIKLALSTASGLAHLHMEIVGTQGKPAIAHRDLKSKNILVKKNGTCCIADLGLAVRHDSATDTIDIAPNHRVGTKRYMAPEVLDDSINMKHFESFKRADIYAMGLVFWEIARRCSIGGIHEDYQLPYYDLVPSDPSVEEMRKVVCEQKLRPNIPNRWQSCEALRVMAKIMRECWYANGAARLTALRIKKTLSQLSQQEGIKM
Method: The assays were performed in a 384-well plate (24 columns×16 wells/rows). An Echo®550 Liquid Handler (Labcyte) was used to prepare various intermediate concentrations of compounds of the present disclosure in 100% DMSO. From the intermediate concentrations, a range of concentrations (from […] to 25 μM corresponding to volumes up to 105 nL) were prepared and ejected into a final assay plate to be used to create individual dose response curves for each of the subject compounds. To a separate column within the assay plate, 105 nL of DMSO in each well was used to establish a maximum assay signal. Additionally, 105 nL of 100 μM SD-208, a selective TGF-βR1 inhibitor (Catalog #S7624, Selleck Chemicals), was used in another column of wells to establish a minimal assay signal.
With a multidrop dispenser, 8 μL of enzyme mixture (1.25× final) was added to each well. […] The plate was then sealed with an adhesive seal and allowed to equilibrate for 60 minutes at room temperature.
Next, 2 μL of 125 μM ATP (5×final, 125 μM ATP prepared in assay buffer with 2 mM DTT) was added to the incubated mixtures, covered with a MicroClime® Environmental Lid (Product No. LLS-0310, Labcyte) and immediately transferred to 37° C. The reactions were allowed to proceed at 37° C. for 60 minutes before terminating with the addition of 10 μL of detection antibody (LANCE® (lanthanide chelate excite) Ultra Europium-anti-phospo-DNA Topoisomerase 2-alpha (Thr1342)) in detection mixture (12 mM EDTA, 4 nM detection antibody prepared in detection buffer (50 mM Tris-HCl, 150 mM NaCl, 0.5% BSA (Fraction V), pH 7.0)) at room temperature. The plate was then read on a Perkin Elmer EnVision Plate Reader using europium specific reader settings with excitation and emission wavelengths set to 320 or 340 nm and 665 nm, respectively.
For dose-response analyses, percent inhibition versus compound concentrations were plotted, and pIC50 values were determined from a 4-parameter robust fit model with GraphPad Prism V5 Software (GraphPad Software, Inc., La Jolla, CA). This model obtains pIC50 values by fitting the sigmoidal dose-response (variable slope) equation to the data. Results were expressed as pIC50 (negative logarithm of IC50) and subsequently converted to pKi (negative logarithm of dissociate constant, Ki) using the Cheng-Prusoff equation. The higher the value of pKi (lower value of Ki), the greater the inhibition of ALK5 activity.

## COc1cc(Nc2nccc(Nc3ccnc(-c4cccc(C)n4)n3)n2)ccc1NS(C)(=O)=O [Compound 18, N-[2-methoxy-4-[[4-[[2-(6-methyl-2-pyridyl)pyrimidin-4-yl]amino]pyrimidin-2-yl]amino]phenyl] methanesulfonamide]
[1]
  IC50: 25.1 to 158 nM
[2]
  pKi: 8.50 to 9.40

## Fc1cc(F)c(-c2nccc(Nc3ccnc(Nc4ccc(N5CCOCC5)cc4)n3)n2)cc1Cl [Compound 19, N4-[2-(5-chloro-2,4-difluoro-phenyl)pyrimidin-4-yl]-N2-(4-morpholinophenyl)pyrimidine-2,4-diamine]
[1]
  IC50: 25.1 to 158 nM
[2]
  pKi: 7.50 to 8.40

## COc1ncc(Nc2nccc(Nc3ccnc(-c4cccc(C)n4)n3)n2)cc1NS(C)(=O)=O [Compound 20, N-[2-methoxy-5-[[4-[[2-(6-methyl-2-pyridyl)pyrimidin-4-yl]amino]pyrimidin-2-yl]amino]-3-pyridyl]methanesulfonamide]
[1]
  IC50: ≤ 20 nM
[2]
  pKi: 8.50 to 9.40

## Cc1cccc(-c2nccc(Nc3ccnc(Nc4ccc(S(=O)(=O)N5CCNCC5)cc4)n3)n2)n1 [Compound 21, N4-[2-(6-methyl-2-pyridyl)pyrimidin-4-yl]-N2-(4-piperazin-1-ylsulfonylphenyl)pyrimidine-2,4-diamine]
[1]
  IC50: 25.1 to 158 nM
[2]
  pKi: 9.50 to 10.40

## Cc1cccc(-c2nccc(Nc3ccnc(Nc4ccc(CN5CC(C(=O)OC6CCNCC6)C5)cc4)n3)n2)n1 [Compound 22, 4-piperidyl 1-[[4-[[4-[[2-(6-methyl-2-pyridyl)pyrimidin-4-yl]amino]pyrimidin-2-yl]amino]phenyl]methyl] azetidine-3-carboxylate]
[1]
  IC50: 25.1 to 158 nM
[2]
  pKi: 9.50 to 10.40

## Cc1cccc(-c2nccc(Nc3ccnc(Nc4ccc(CN5CCN(Cc6ccccc6)CC5)cc4)n3)n2)n1 [Compound 23, N2-[4-[(4-benzylpiperazin-1-yl)methyl]phenyl]-N4-[2-(6-methyl-2-pyridyl)pyrimidin-4-yl]pyrimidine-2,4-diamine]
[1]
  IC50: 25.1 to 158 nM
[2]
  pKi: 9.50 to 10.40

## Cc1cccc(-c2nccc(Nc3ccnc(Nc4ccc(CN(C)C)cc4)n3)n2)n1 [Compound 24, N2-[4-[(dimethylamino)methyl]phenyl]-N4-[2-(6-methyl-2-pyridyl)pyrimidin-4-yl]pyrimidine-2,4-diamine]
[1]
  IC50: 25.1 to 158 nM
[2]
  pKi: ≥ 10.50

## COC(=O)C1CNCCN1Cc1ccc(Nc2nccc(Nc3ccnc(-c4cccc(C)n4)n3)n2)cc1 (stereo not drawn) [Compound 25, methyl 1-[[4-[[4-[[2-(6-methyl-2-pyridyl)pyrimidin-4-yl]amino]pyrimidin-2-yl]amino]phenyl]methyl] piperazine-2-carboxylate]
[1]
  IC50: 25.1 to 158 nM
[2]
  pKi: 9.50 to 10.40

## Cc1cccc(-c2nccc(Nc3ccnc(Nc4ccc(N5CCN(Cc6ccccc6)CC5)cc4)n3)n2)n1 [Compound 27, N2-[4-(4-benzylpiperazin-1-yl)phenyl]-N4-[2-(6-methyl-2-pyridyl)pyrimidin-4-yl]pyrimidine-2,4-diamine]
[1]
  IC50: 25.1 to 158 nM
[2]
  pKi: 9.50 to 10.40

## COC(=O)C1CCN(Cc2ccc(Nc3nccc(Nc4ccnc(-c5cccc(C)n5)n4)n3)cc2)CC1 [Compound 28, methyl 1-[[4-[[4-[[2-(6-methyl-2-pyridyl)pyrimidin-4-yl]amino]pyrimidin-2-yl]amino]phenyl]methyl] piperidine-4-carboxylate]
[1]
  IC50: ≤ 20 nM
[2]
  pKi: 9.50 to 10.40

## Cc1cccc(-c2nccc(Nc3ccnc(Nc4ccc(CN5CCCC(C(=O)OC6CCN(C)C6)C5)cc4)n3)n2)n1 (stereo not drawn) [Compound 29, (1-methylpyrrolidin-3-yl) 1-[[4-[[4-[[2-(6-methyl-2-pyridyl)pyrimidin-4-yl]amino]pyrimidin-2-yl]amino]phenyl]methyl] piperidine-3-carboxylate]
[1]
  IC50: ≤ 20 nM
[2]
  pKi: ≥ 10.50

## Cc1cccc(-c2nccc(Nc3ccnc(Nc4ncc(C(=O)N5CCNCC5)s4)n3)n2)n1 [Compound 30, [2-[[4-[[2-(6-methyl-2-pyridyl)pyrimidin-4-yl]amino]pyrimidin-2-yl]amino]thiazol-5-yl]-piperazin-1-yl-methanone]
[1]
  IC50: 200 to 1260 nM
[2]
  pKi: 7.50 to 8.40
